In this data set the test system is CCRIS mutagenicity, Ames/micronucleus/aberration tests. The data set is described as follows: CCRIS mutagenicity studies. The source says: The CCRIS database contains chemical records with carcinogenicity, mutagenicity, tumor promotion, and tumor inhibition test results. It was developed by the National Cancer Institute (NCI). Data are derived from studies cited in primary journals, current awareness tools, NCI reports, and other sources. Test results have been reviewed by experts in carcinogenesis and mutagenesis.
CCRIS provides historical information from the years 1985 - 2011. It is no longer updated.
This is an archive assay for CCRIS mutagenicity studies.

The mark [1] stands for this setting: Test System: AMES SALMONELLA TYPHIMURIUM, Strain/Indicator: TA98, Metabolic Activation: NONE, Method: PREINCUBATION
Where [2] appears, read: Test System: AMES SALMONELLA TYPHIMURIUM, Strain/Indicator: TA100, Metabolic Activation: NONE, Method: PREINCUBATION
[3] abbreviates: Test System: AMES SALMONELLA TYPHIMURIUM, Strain/Indicator: TA100, Metabolic Activation: NONE, Method: STANDARD PLATE.

Calls of active or inactive are those of the source. No rule for the calls is given here.

`[O-][Br+2]([O-])O`: the mutagenic call reads like this: (End Point: IN VITRO CHROMOSOMAL ABERRATIONS, Test System: CHL/IU CELLS, Metabolic Activation: NONE) “active; positive (structural changes)”; (End Point: IN VITRO MICRONUCLEUS, Test System: CHL/IU CELLS, Metabolic Activation: NONE) “active; positive”; (End Point: IN VIVO MICRONUCLEUS, Test System: BONE MARROW POLYCHROMATIC ERYTHROCYTES, Species: MOUSE, Strain/Sex: DDY/MALE, Route: ORAL) “active; positive”; (End Point: In vitro chromosomal aberrations, Test System: Chinese hamster lung (CHL) cells, Metabolic Activation: None) “active; positive (structural changes)”; (End Point: In vitro micronucleus, Test System: Human TK6 lymphoblastoid cells, Metabolic Activation: None) “active; positive”; (End Point: In vivo micronucleus, Test System: Peripheral blood normochromatic erythrocytes, Species: Mouse, Strain/Sex: Tg.AC hemizygous/Female, Route: Dermal) “active; positive”. Moreover, the mutagenic call (End Point: In vivo micronucleus, Test System: Peripheral blood normochromatic erythrocytes, Species: Mouse, Strain/Sex: Tg.AC hemizygous/Female, Route: Oral) was “active; positive”; the mutagenic call (End Point: In vivo micronucleus, Test System: Peripheral blood normochromatic erythrocytes, Species: Mouse, Strain/Sex: Tg.AC hemizygous/Male, Route: Dermal) was “active; positive”; the mutagenic call (End Point: In vivo micronucleus, Test System: Peripheral blood normochromatic erythrocytes, Species: Mouse, Strain/Sex: Tg.AC hemizygous/Male, Route: Oral) was “active; positive”; the mutagenic call (End Point: In vivo micronucleus, Test System: Peripheral blood normochromatic erythrocytes, Species: Mouse, Strain/Sex: p53 Haploinsufficient/Female, Route: Oral) was “active; positive”; the mutagenic call (End Point: In vivo micronucleus, Test System: Peripheral blood normochromatic erythrocytes, Species: Mouse, Strain/Sex: p53 Haploinsufficient/Male, Route: Oral) is “active; positive”; the mutagenic call (End Point: In vivo mutagenicity, Test System: Kidney, Species: Rat, Strain/Sex: Big Blue/male, Route: Oral) was “active; positive for mutants and total mutation frequencies and frequency of gc to ta tr”. The mutagenic call is “inactive; negative” (Test System: AMES SALMONELLA TYPHIMURIUM, Strain/Indicator: TA97, Metabolic Activation: HAMSTER, LIVER, S-9, AROCLOR 1254 (10%), Method: PREINCUBATION); “inactive; negative” (Test System: AMES SALMONELLA TYPHIMURIUM, Strain/Indicator: TA97, Metabolic Activation: HAMSTER, LIVER, S-9, AROCLOR 1254 (30%), Method: PREINCUBATION); “inactive; negative” (Test System: AMES SALMONELLA TYPHIMURIUM, Strain/Indicator: TA97, Metabolic Activation: RAT, LIVER, S-9, AROCLOR 1254 (30%), Method: PREINCUBATION); “inactive; negative” (Test System: AMES SALMONELLA TYPHIMURIUM, Strain/Indicator: TA97, Metabolic Activation: RAT, LIVER, S-9, AROCLOR 1254, Method: PREINCUBATION); “inactive; negative” (Test System: AMES SALMONELLA TYPHIMURIUM, Strain/Indicator: TA98, Metabolic Activation: HAMSTER, LIVER, S-9, AROCLOR 1254 (30%), Method: PREINCUBATION); “inactive; negative” under setting [1]. The mutagenic call is “inactive; negative” (Test System: AMES SALMONELLA TYPHIMURIUM, Strain/Indicator: TA98, Metabolic Activation: RAT, LIVER, S-9, AROCLOR 1254 (30%), Method: PREINCUBATION); “inactive; negative” (Test System: AMES SALMONELLA TYPHIMURIUM, Strain/Indicator: TA100, Metabolic Activation: HAMSTER, LIVER, S-9, AROCLOR 1254 (30%), Method: PREINCUBATION); “inactive; negative” under setting [2]; “inactive; negative” (Test System: AMES SALMONELLA TYPHIMURIUM, Strain/Indicator: TA100, Metabolic Activation: RAT, LIVER, S-9, AROCLOR 1254 (30%), Method: PREINCUBATION); “inactive; negative” (Test System: AMES SALMONELLA TYPHIMURIUM, Strain/Indicator: TA102, Metabolic Activation: NONE, Method: PREINCUBATION); “inactive; negative” (Test System: AMES SALMONELLA TYPHIMURIUM, Strain/Indicator: TA102, Metabolic Activation: RAT, LIVER, S-9, AROCLOR 1254, Method: PREINCUBATION). The mutagenic call (Test System: AMES SALMONELLA TYPHIMURIUM, Strain/Indicator: TA1535, Metabolic Activation: HAMSTER, LIVER, S-9, AROCLOR 1254 (10%), Method: PREINCUBATION) is “active; positive”; the mutagenic call (Test System: AMES SALMONELLA TYPHIMURIUM, Strain/Indicator: TA1535, Metabolic Activation: NONE, Method: PREINCUBATION) is “inactive; negative”; the mutagenic call (Test System: AMES SALMONELLA TYPHIMURIUM, Strain/Indicator: TA1537, Metabolic Activation: HAMSTER, LIVER, S-9, AROCLOR 1254 (10 OR 30%), Method: PREINCUBATION) is “inactive; negative”; the mutagenic call (Test System: AMES SALMONELLA TYPHIMURIUM, Strain/Indicator: TA1537, Metabolic Activation: NONE, Method: PREINCUBATION) is “inactive; negative”; the mutagenic call (Test System: AMES SALMONELLA TYPHIMURIUM, Strain/Indicator: TA1537, Metabolic Activation: RAT, LIVER, S-9, AROCLOR 1254 (10 OR 30%), Method: PREINCUBATION) is “inactive; negative”; the mutagenic call (Test System: CHINESE HAMSTER V-79 CELLS, Strain/Indicator: V-79-UL (HPRT)/6-THIOGUANINE, Metabolic Activation: NONE, Method: SUSPENSION/PLATE) is “active; positive”. For the same compound, the mutagenic call (Test System: Human lymphoblastoid cells, Strain/Indicator: TK6 (HPRT)/6-thioguanine, Metabolic Activation: None, Method: Suspension/Well) is “active; positive”.
In the case of `O=C1C=C(CCl)CO1`, under setting [3], the mutagenic call is “active; positive”.
For the compound `c1cnc2cnncc2c1`, the mutagenic call under setting [1] is “inactive; negative”; the mutagenic call (Test System: AMES SALMONELLA TYPHIMURIUM, Strain/Indicator: TA98, Metabolic Activation: RAT, LIVER, S-9, PCB, Method: PREINCUBATION) was “inactive; negative”; the mutagenic call under setting [2] is “inactive; negative”; the mutagenic call (Test System: AMES SALMONELLA TYPHIMURIUM, Strain/Indicator: TA100, Metabolic Activation: RAT, LIVER, S-9, PCB, Method: PREINCUBATION) was “inactive; negative”.
For the compound `N#Cc1cccc(/C=C/c2ccc([N+](=O)[O-])cc2)c1`, the mutagenic call (Test System: AMES SALMONELLA TYPHIMURIUM, Strain/Indicator: TA98(NR), Metabolic Activation: NONE, Method: STANDARD PLATE) was “active; positive”; the mutagenic call (Test System: AMES SALMONELLA TYPHIMURIUM, Strain/Indicator: TA98 (NR), Metabolic Activation: S-9, Method: STANDARD PLATE) was “active; positive”; the mutagenic call (Test System: AMES SALMONELLA TYPHIMURIUM, Strain/Indicator: TA98, Metabolic Activation: NONE, Method: STANDARD PLATE) was “active; positive”; the mutagenic call (Test System: AMES SALMONELLA TYPHIMURIUM, Strain/Indicator: TA98, Metabolic Activation: S-9, Method: STANDARD PLATE) was “active; positive”; the mutagenic call (Test System: AMES SALMONELLA TYPHIMURIUM, Strain/Indicator: TA100 (NR), Metabolic Activation: NONE, Method: STANDARD PLATE) is “inactive; negative”; the mutagenic call (Test System: AMES SALMONELLA TYPHIMURIUM, Strain/Indicator: TA100(NR), Metabolic Activation: S-9, Method: STANDARD PLATE) is “inactive; negative”. In addition, the mutagenic call is “active; positive” under setting [3] and “active; positive” (Test System: AMES SALMONELLA TYPHIMURIUM, Strain/Indicator: TA100, Metabolic Activation: S-9, Method: STANDARD PLATE).
Consider `O[C@H]1[C@@H]2O[C@@H]2c2c(ccc3cc4ccc5ccccc5c4nc23)[C@@H]1O`, for which the mutagenic call was “active; positive” under setting [1]; “active; positive” under setting [2]; “active; positive” (Test System: CHINESE HAMSTER V-79, Strain/Indicator: V-79/8-AZAGUANINE, Metabolic Activation: NONE, Method: STANDARD PLATE).
With `Nc1ccc(O)c2c1C(O)=CC(=O)C2=O`, the mutagenic call was “inactive; negative” (Test System: Ames Salmonella typhimurium, Strain/Indicator: TA97, Metabolic Activation: None, Method: Preincubation); “inactive; negative” (Test System: Ames Salmonella typhimurium, Strain/Indicator: TA97, Metabolic Activation: Rat, Liver, S9, Aroclor 1254, Method: Preincubation); “active; positive” (Test System: Ames Salmonella typhimurium, Strain/Indicator: TA98, Metabolic Activation: None, Method: Preincubation); “inactive; negative” (Test System: Ames Salmonella typhimurium, Strain/Indicator: TA98, Metabolic Activation: Rat, Liver, S9, Aroclor 1254, Method: Preincubation); “inactive; negative” (Test System: Ames Salmonella typhimurium, Strain/Indicator: TA100, Metabolic Activation: None, Method: Preincubation); “inactive; negative” (Test System: Ames Salmonella typhimurium, Strain/Indicator: TA100, Metabolic Activation: Rat, Liver, S9, Aroclor 1254, Method: Preincubation). Besides, the mutagenic call was “inactive; negative” (Test System: Ames Salmonella typhimurium, Strain/Indicator: TA102, Metabolic Activation: None, Method: Preincubation) and “active; positive” (Test System: Ames Salmonella typhimurium, Strain/Indicator: TA102, Metabolic Activation: Rat, Liver, S9, Aroclor 1254, Method: Preincubation).

The record behind these values is PubChem BioAssay AID1259407 (Chemical Carcinogenesis Research Information System (CCRIS), 2018).
